The text below walks through data of US8618289B2 (Ambit Biosciences Corporation, priority 2008, dated 2013).

Assay [1] relates to MEK1 phosphorylation in the A375 human melanoma cell line. The assay can be described thus: cells. To be noted: A-375, read-out: pMEK IC50.
In another assay the target is RAF kinases (Homo sapiens, UniProt P15056). The assay can be described thus: biochemical.
The test system of the next assay is A375 cells. Put plainly: cells. The note with it: Homo sapiens, A-375, read-out: A375 Viability EC50.

Structures can show the parent of a compound that is named as a salt.

Sequence of RAF kinases (P15056 whole entry): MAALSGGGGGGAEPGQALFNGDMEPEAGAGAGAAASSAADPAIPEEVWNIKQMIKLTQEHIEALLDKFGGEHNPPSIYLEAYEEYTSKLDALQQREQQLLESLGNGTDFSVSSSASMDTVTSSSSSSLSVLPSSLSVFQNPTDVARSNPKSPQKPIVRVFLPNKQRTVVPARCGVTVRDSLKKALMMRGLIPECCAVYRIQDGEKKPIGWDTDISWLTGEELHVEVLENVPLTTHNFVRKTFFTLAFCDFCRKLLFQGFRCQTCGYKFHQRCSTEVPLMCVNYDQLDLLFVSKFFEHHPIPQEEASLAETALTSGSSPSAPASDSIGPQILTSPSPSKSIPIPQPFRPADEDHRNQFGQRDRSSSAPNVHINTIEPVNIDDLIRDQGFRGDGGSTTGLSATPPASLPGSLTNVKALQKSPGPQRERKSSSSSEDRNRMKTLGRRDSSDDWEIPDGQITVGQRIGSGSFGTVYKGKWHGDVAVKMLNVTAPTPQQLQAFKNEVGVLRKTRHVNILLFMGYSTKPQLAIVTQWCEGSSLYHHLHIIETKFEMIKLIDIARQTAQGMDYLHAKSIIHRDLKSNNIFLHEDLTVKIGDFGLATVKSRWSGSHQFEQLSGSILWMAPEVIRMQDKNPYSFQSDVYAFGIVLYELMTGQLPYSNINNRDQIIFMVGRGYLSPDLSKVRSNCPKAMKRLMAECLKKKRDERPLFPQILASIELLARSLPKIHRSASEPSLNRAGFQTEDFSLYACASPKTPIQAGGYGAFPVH

`COc1cc2ncnc(Oc3cccc(NC(=O)Nc4cc(C(C)(C)C)on4)c3)c2cc1OCCCN1CCS(=O)(=O)CC1` [Ex 26, 1-(5-tert-butyl-isoxazol-3-yl)-3-(3-{6-[3-(1,1-dioxo-thiomorpholin-4-yl)-propoxy]-7-methoxy-quinazolin-4-yloxy}-phenyl)-urea]: the IC50 in assay [1] was under 0.25 µM. Further, the equilibrium dissociation constant (Kd) on RAF kinases was in the range of 0.25 to 0.5 µM. Moreover, the concentration for a half-maximal effect (EC50) with A375 cells is under 0.25 µM.
For the compound `COc1cc2c(Oc3cccc(NC(=O)Nc4cc(C(C)(C)C)on4)c3)ncnc2cc1OCCCN1CCN(C)CC1` [Ex 28, 1-(5-tert-butylisoxazol-3-yl)-3-(3-(6-methoxy-7-(3-(4-methylpiperazin-1-yl)propoxy)quinazolin-4-yloxy)phenyl)urea], the IC50 in assay [1] is under 0.25 µM. The Kd at RAF kinases is 0.25 to 0.5 µM. The EC50 with A375 cells is under 0.25 µM.
`COc1cc2ncnc(Sc3cccc(NC(=O)Nc4cc(C(C)(C)C)on4)c3)c2cc1OCCCN1CCN(CCO)CC1` [Ex 61, 1-(5-tert-butylisoxazol-3-yl)-3-(3-(6-(3-(4-(2-hydroxyethyl)piperazin-1-yl)propoxy)-7-methoxyquinazolin-4-ylthio)phenyl)urea]: the IC50 in assay [1] is over 1 µM. The same compound displayed a Kd on RAF kinases of 0.25 to 0.5 µM. For the same compound, the EC50 with A375 cells is over 1 µM.
As for `COc1cc2ncnc(Sc3cccc(NC(=O)Nc4cc(C(C)(C)C)on4)c3)c2cc1OCCCN1CCS(=O)(=O)CC1` [Ex 62, 1-(5-tert-butyl-isoxazol-3-yl)-3-(3-{6-[3-(1,1-dioxo-thiomorpholin-4-yl)-propoxy]-7-methoxy-quinazolin-4-ylsulfanyl}-phenyl)-urea], in assay [1], the half-inhibitory concentration (IC50) is under 0.25 µM. The same compound had a Kd at RAF kinases of 0.25 to 0.5 µM. Also, in the assay on A375 cells, the EC50 is under 0.25 µM.
`COc1cc2ncnc(Sc3cccc(NC(=O)Nc4cc(C(C)(C)C)on4)c3)c2cc1OCCCN1CCOCC1` [Ex 63, 1-(5-tert-butylisoxazol-3-yl)-3-(3-(7-methoxy-6-(3-morpholinopropoxy)quinazolin-4-ylthio)phenyl)urea]: in assay [1], the IC50 was under 0.25 µM. The dissociation constant (Kd) at RAF kinases fell in the range of 0.25 to 0.5 µM. The EC50 in the assay on A375 cells was 0.5 to 1 µM.
`COc1cc2ncnc(Sc3cccc(NC(=O)Nc4cc(C(C)(C)C)on4)c3)c2cc1OCCN1CCOCC1` [Ex 70, 1-(5-tert-butylisoxazol-3-yl)-3-(3-(7-methoxy-6-(2-morpholinoethoxy)quinazolin-4-ylthio)phenyl)urea]: the 50% inhibitory concentration (IC50) in assay [1] was under 0.25 µM. For the same compound, the Kd at RAF kinases was in the range of 0.25 to 0.5 µM. Moreover, the EC50 in the assay on A375 cells was under 0.25 µM.
As for `COc1cc2c(Sc3cccc(NC(=O)Nc4cc(C(C)(C)C)on4)c3)ncnc2cc1OCCCN1CCC(CO)CC1` [Ex 74, 1-(5-tert-butylisoxazol-3-yl)-3-(3-(7-(3-(4-(hydroxymethyl)piperidin-1-yl)propoxy)-6-methoxyquinazolin-4-ylthio)phenyl)urea], the IC50 in assay [1] was under 0.25 µM. The Kd at RAF kinases was in the range of 0.25 to 0.5 µM. The 50% effective concentration (EC50) in the assay with A375 cells was 0.25 to 0.5 µM.
`COc1cc2c(Oc3cccc(NC(=O)Nc4cc(C(C)(C)C)on4)c3)ncnc2cc1O[C@H]1CCNC1` [Ex 96, (S)-1-(5-tert-butylisoxazol-3-yl)-3-(3-(6-methoxy-7-(pyrrolidin-3-yloxy)quinazolin-4-yloxy)phenyl)urea dihydrochloride]: the half-maximal inhibitory concentration (IC50) in assay [1] lay within 0.25 to 0.5 µM. This compound also showed a Kd on RAF kinases of 0.25 to 0.5 µM. For the same compound, the EC50 with A375 cells was over 1 µM.
For the compound `COc1cc2c(Oc3cccc(NC(=O)Nc4cc(C(C)(C)C)on4)c3)ncnc2cc1O[C@@H]1CCNC1` [Ex 98, (R)-1-(5-tert-butylisoxazol-3-yl)-3-(3-(6-methoxy-7-(pyrrolidin-3-yloxy)quinazolin-4-yloxy)phenyl)urea dihydrochloride], in assay [1], the 50% inhibitory concentration (IC50) was 0.5 to 1 µM. At RAF kinases, the Kd was in the range of 0.25 to 0.5 µM. The EC50 in the assay with A375 cells is over 1 µM.
Regarding `COc1cc2ncnc(Oc3cccc(NC(=O)Nc4cc(C(C)(C)C)on4)c3)c2cc1O` [Ex 107, 1-(5-tert-butylisoxazol-3-yl)-3-(3-(6-hydroxy-7-methoxyquinazolin-4-yloxy)phenyl)urea], the concentration for half-maximal inhibition (IC50) in assay [1] was under 0.25 µM. This compound had a dissociation constant Kd on RAF kinases of 0.25 to 0.5 µM. For the same compound, the EC50 with A375 cells lay in the range of 0.25 to 0.5 µM.

Usually IC50 stands for the midpoint of a concentration-inhibition curve. In general, Kd refers to a measure of binding affinity in units of concentration. By EC50 is commonly meant the concentration needed to bring the measured effect to its halfway point.
